What all share (assay type): cell-based
Assay [1] relates to NCI-H747 cells. In words: DHX9 cellular proliferation assay (CellTiter-Glo), NCI-H747 (CRC-MSS). Particulars: Homo sapiens, NCI-H747, NCI-H747; performed at Pharmaron; read-out: H747 (CRC-MSS) Antiproliferative IC50. (In ATP-based viability assays light output follows the ATP content of the culture.)
Assay [2] relates to circBRIP1 in HCT116 cells. In words: DHX9 circBRIP1 cellular target engagement TaqMan Multiplex assay (qPCR). The settings on record: Homo sapiens, HCT-116, circBRIP1, HCT116 cells; * Taqman assay was used; read-out: DHX9 Cellular Target Engagement EC50. For orientation: Real-time PCR tracks product formation cycle by cycle.
For assay [3], the system named is LS411N cells. In words: DHX9 cellular proliferation assay (CellTiter-Glo), LS411N (CRC-MSI). The settings on record: Homo sapiens, LS-411N, LS411N; performed at Pharmaron; read-out: LS411N (CRC-MSI-H) Antiproliferative IC50.

Where only a bound is given, the exact number is not on record here.

Broadly, the IC50 is the concentration needed to halve the response being measured. As usually defined, the EC50 is the concentration needed to bring the measured effect to its halfway point.

`Cc1cc(C(=O)Nc2cc(Cl)cc(NS(C)(=O)=O)c2)cn1-c1ncc(N2CC(F)(F)C2)cc1F` [Example 420]: the IC50 in assay [1] turned out to be 3870 nM; in assay [3], 353 nM. For the same molecule, the EC50 in assay [2] came to 50.6 nM.
The corresponding values for `COc1cc(N2CC(F)(F)C2)cnc1-n1cc(C(=O)Nc2cc(Cl)cc(NS(C)(=O)=O)c2)cc1C` [Example 421] are more than 10000 nM, 114 nM and 19.4 nM.
The corresponding values for `CCS(=O)(=O)Nc1cc(Cl)cc(NC(=O)c2cc(C)n(-c3ncc(N4CC(F)(F)C4)cn3)c2)c1` [Example 423] are 8030 nM, 269 nM and 51.2 nM.
The corresponding values for `Cc1sc(C(=O)Nc2cc(Cl)cc(NS(C)(=O)=O)c2)cc1-c1ncc(OC2CCC2)cn1` [Example 452] are more than 10000 nM, 223 nM and 65.3 nM.
In the case of `CCOc1cnc(-c2cc(C(=O)Nc3cc(Cl)cc(NS(C)(=O)=O)c3)cn2C)c(F)c1` [Example 453], the results for the IC50 in assay [1] and in assay [3] were 6550 nM and 218 nM, respectively. The EC50 in assay [2] amounted to 54.6 nM.
The corresponding values for `COc1cnc(-c2cc(C(=O)Nc3cc(Cl)cc(NS(C)(=O)=O)c3)cn2C)c(F)c1` [Example 454] are 5810 nM, 218 nM and 18.2 nM.
The corresponding values for `CCOc1cnc(-c2cc(C(=O)Nc3cc(Cl)cc(NS(C)(=O)=O)c3)sc2C)c(F)c1` [Example 456] are 1940 nM, 209 nM and 32.8 nM.
The corresponding values for `CC(C)Oc1cnc(-c2csc(C(=O)Nc3cc(Cl)cc(NS(C)(=O)=O)c3)c2)nc1` [Example 457] are 4800 nM, 76.1 nM and 85.3 nM.
Regarding `CC(C)Oc1ccc(-c2csc(C(=O)Nc3cc(Cl)cc(NS(C)(=O)=O)c3)c2)nc1` [Example 459], the IC50 is 2660 nM in assay [1] and 93.7 nM in assay [3]. Moreover, the EC50 in assay [2] came to 58.2 nM.
In the case of `COc1cc(N2CC(F)(F)C2)cnc1-c1cc(C(=O)Nc2cc(Cl)cc(NS(C)(=O)=O)c2)cn1C` [Example 462], the IC50 in assay [1] is more than 10000 nM; in assay [3], 257 nM. The EC50 in assay [2] turned out to be 25.7 nM.
The corresponding values for `CCS(=O)(=O)Nc1cc(Cl)cc(NC(=O)c2cc(-c3ncc(N4CC(F)(F)C4)cn3)c(C)s2)c1` [Example 463] are more than 10000 nM, 59.3 nM and 18 nM.
With `COC(=O)N1CCN(c2cnc(-c3cc(C(=O)Nc4cc(Cl)cc(NS(C)(=O)=O)c4)cn3C)c(F)c2)CC1` [Example 464], the results for the IC50 in assay [1] and in assay [3] were more than 10000 nM and 247 nM, respectively. Besides, in assay [2], the EC50 came to 17.2 nM.
The corresponding values for `COC1CN(c2ccc(-c3cc(C(=O)Nc4cc(Cl)cc(NS(C)(=O)=O)c4)cn3C)nc2)C1` [Example 465] are more than 10000 nM, 115 nM and 35.2 nM.
The corresponding values for `Cn1cc(C(=O)Nc2cc(Cl)cc(NS(C)(=O)=O)c2)cc1-c1ncc(N2CC(F)C2)cc1F` [Example 466] are 4850 nM, 350 nM and 52.4 nM.
The corresponding values for `Cn1cc(C(=O)Nc2cc(Cl)cc(NS(C)(=O)=O)c2)cc1-c1ncc(N2CCC(F)(F)CC2)cc1F` [Example 469] are 3790 nM, 522 nM and 83.8 nM.
In the case of `Cc1sc(C(=O)Nc2cc(Cl)cc(NS(C)(=O)=O)c2)cc1-c1ncc(N2CCC(F)(F)CC2)cc1F` [Example 471], the figures for the concentration for half-maximal inhibition (IC50) in assay [1] and in assay [3] were 8870 nM and 72.5 nM, respectively. In addition, in assay [2], the EC50 is 27.5 nM.
The corresponding values for `Cc1sc(C(=O)Nc2cc(Cl)cc(NS(C)(=O)=O)c2)cc1-c1ncc(N2CCC3(CC2)COC3)cc1F` [Example 474] are 6630 nM, 87.2 nM and 13.5 nM.
The corresponding values for `Cn1cc(C(=O)Nc2cc(Cl)cc(NS(C)(=O)=O)c2)cc1-c1ncc(N2CCC3(CC2)COC3)cc1F` [Example 475] are 8770 nM, 81.2 nM and 31.5 nM.
`Cc1sc(C(=O)Nc2cc(Cl)cc(NS(C)(=O)=O)c2)cc1-c1ncc(N2CC3C(C2)C3(C)C)cc1F` (stereo not drawn) [Example 476]: the IC50 in assay [1] was found to be 4140 nM; in assay [3], 140 nM. Moreover, in assay [2], the EC50 amounted to 108 nM.
Regarding `Cc1sc(C(=O)Nc2cc(Cl)cc(NS(C)(=O)=O)c2)cc1-c1ncc(N2CCC3(CC2)CC3(F)F)cc1F` [Example 478], the figures for the concentration for half-maximal inhibition (IC50) in assay [1] and in assay [3] were 4840 nM and 259 nM, respectively. The EC50 in assay [2] was 102 nM.
For the molecule `Cc1sc(C(=O)Nc2cc(Cl)cc(NS(C)(=O)=O)c2)cc1-c1ncc(N2CCC(F)(F)C2)cn1` [Example 479], the IC50 is 7410 nM in assay [1] and 37.4 nM in assay [3]. In assay [2], the EC50 worked out at 16.9 nM.
With `Cc1sc(C(=O)Nc2cc(Cl)cc(NS(C)(=O)=O)c2)cc1-c1ncc(N2CCC3(C2)CC3(F)F)cc1F` (stereo not drawn) [Example 480], the IC50 in assay [1] is more than 10000 nM; in assay [3], 150 nM. For the same molecule, in assay [2], the EC50 stood at 55.8 nM.
Consider `Cc1sc(C(=O)Nc2cc(Cl)cc(NS(C)(=O)=O)c2)cc1-c1ncc(N2CCCC(F)(F)C2)cc1F` [Example 482], for which the IC50 is 1140 nM in assay [1] and 66.8 nM in assay [3]. For the same molecule, the EC50 in assay [2] worked out at 35.6 nM.
The corresponding values for `Cn1cc(C(=O)Nc2cc(Cl)cc(NS(C)(=O)=O)c2)cc1-c1ncc(N2CCCC(F)(F)C2)cc1F` [Example 483] are 1710 nM, 101 nM and 61 nM.
The corresponding values for `Cc1sc(C(=O)Nc2cc(Cl)cc(NS(C)(=O)=O)c2)cc1-c1ncc(N2CCC(F)(F)C2)cc1F` [Example 484] are 2600 nM, 66.2 nM and 31.8 nM.
The corresponding values for `Cc1sc(C(=O)Nc2cc(Cl)cc(NS(C)(=O)=O)c2)cc1-c1ccc(N2CCC(F)(F)C2)cn1` [Example 485] are 2060 nM, 58.3 nM and 12.4 nM.
Consider `CS(=O)(=O)Nc1cc(Cl)cc(NC(=O)c2cc(-c3ncc(N4CC(F)(F)C4)cn3)cs2)c1` [Example 486], for which the values for the IC50 in assay [1] and in assay [3] were 1990 nM and 112 nM, respectively. The EC50 in assay [2] amounted to 31.1 nM.
The corresponding values for `Cc1sc(C(=O)Nc2cc(Cl)cc(NS(C)(=O)=O)c2)cc1-c1ncc(N2CC(C(F)(F)F)C2)cn1` [Example 489] are 2060 nM, 51 nM and 22.5 nM.
The corresponding values for `Cn1cc(C(=O)Nc2cc(Cl)cc(NS(C)(=O)=O)c2)cc1-c1ncc(N2CC3(C2)CC(F)(F)C3)cn1` [Example 492] are more than 10000 nM, 209 nM and 44.4 nM.
For the molecule `Cn1cc(C(=O)Nc2cc(Cl)cc(NS(C)(=O)=O)c2)cc1-c1ncc(N2CC(C(F)(F)F)C2)cn1` [Example 493], the values for the IC50 in assay [1] and in assay [3] were more than 10000 nM and 131 nM, respectively. Moreover, the EC50 in assay [2] was 22 nM.
The corresponding values for `Cn1cc(C(=O)Nc2cc(Cl)cc(NS(C)(=O)=O)c2)cc1-c1ncc(N2CCC3(C2)CC3(F)F)cn1` (stereo not drawn) [Example 494] are more than 10000 nM, 129 nM and 42.9 nM.
The corresponding values for `Cc1sc(C(=O)Nc2cc(Cl)cc(NS(C)(=O)=O)c2)cc1-c1ccc(N2CC(C(F)(F)F)C2)cn1` [Example 496] are 2020 nM, 48.2 nM and 23.3 nM.
With `Cn1cc(C(=O)Nc2cc(Cl)cc(NS(C)(=O)=O)c2)cc1-c1ccc(N2CC(C(F)(F)F)C2)cn1` [Example 497], the IC50 was 2490 nM in assay [1] and 169 nM in assay [3]. Besides, the EC50 in assay [2] was determined as 43.7 nM.
The corresponding values for `Cc1sc(C(=O)Nc2cc(Cl)cc(NS(C)(=O)=O)c2)cc1-c1ccc(N2CC3(C2)CC(F)(F)C3)cn1` [Example 499] are more than 10000 nM, 65.7 nM and 24.8 nM.
The corresponding values for `Cc1sc(C(=O)Nc2cc(F)cc(NS(C)(=O)=O)c2)cc1-c1ncc(N2CC(C(F)(F)F)C2)cc1F` [Example 501] are 7260 nM, 274 nM and 93.3 nM.
The corresponding values for `CS(=O)(=O)Nc1cc(Cl)cc(NC(=O)c2cc(-c3ncc(N4CC(C(F)(F)F)C4)cn3)n(CC(F)F)c2)c1` [Example 508] are 6460 nM, 108 nM and 63.4 nM.
`CCS(=O)(=O)Nc1cc(Cl)cc(NC(=O)c2cc(-c3ncc(N4CC(F)C4)cn3)c(C)s2)c1` [Example 509]: the IC50 in assay [1] was 5890 nM; in assay [3] it was 73.1 nM. Besides, in assay [2], the EC50 stood at 17.7 nM.
The corresponding values for `Cc1sc(C(=O)Nc2cc(Cl)cc(NS(C)(=O)=O)c2)cc1-c1ncc(N2CC(F)(F)C2)cn1` [Example 510] are more than 10000 nM, 123 nM and 16.1 nM.
With `Cc1sc(C(=O)Nc2cc(Cl)cc(NS(C)(=O)=O)c2)cc1-c1ncc(N2CC3(C2)CC(F)(F)C3)cc1F` [Example 511], the IC50 came to 7410 nM in assay [1] and 149 nM in assay [3]. Besides, in assay [2], the EC50 turned out to be 37.2 nM.
The corresponding values for `Cc1sc(C(=O)Nc2cc(Cl)cc(NS(C)(=O)=O)c2)cc1-c1ncc(N2CCC3(COC3)C2)cc1F` [Example 512] are 6720 nM, 107 nM and 17.6 nM.
Consider `Cc1sc(C(=O)Nc2cc(Cl)cc(NS(C)(=O)=O)c2)cc1-c1ncc(N2CC(F)(F)C2)cc1OC1CCC1` [Example 514], for which the IC50 in assay [1] was more than 10000 nM; in assay [3], 149 nM. The EC50 in assay [2] came out at 45.5 nM.

(Values after patent publication US12162867B2, “Inhibitors of RNA helicase DHX9 and uses thereof” (ACCENT THERAPEUTICS, INC., priority 2022, dated 2024).)
